Measurements published in patent US20240197738A1, “COMPOUND 7AI IN TREATING EWING SARCOMA BY INHIBITING OTUD7A” (The University of North Carolina at Chapel Hill, priority 2021, published 2024).
Where a SMILES comes first, the peptide text is derived from it. The star is where a group is joined. Cbz = O=C(OCc1ccccc1)*

Experiments:
Type in all cases: cell-based, human
[1] = tested on: EWS-FLI1; test: Immunoblot of EWS-FLI1 protein abundance in cells; conditions: for SPOP-mediated decrease of ectopically expressed EWS-FLI1: HEK293T cells, 10 μM MG132 or 1 μM MLN4924 overnight (FIG. 1G)
[2] = tested on: EWS-FLI1 mRNA; test: RT-PCR of EWS-FLI1 mRNA levels
Description: Cells were isolated by dissociation with 0.05% Trypsin, followed by media quenching. The cells were spun down at 300×rcf for 5 minutes. The media was aspirated, the pellet was suspended with 1×PBS, and then the cells were spun down again. The PBS was aspirated. RNA extraction was performed with an RNA extraction kit (BioBasic BS584). The final elution step was done with 50 μL of RNAse-free water. The […] with the NanoDrop OneC (Thermo Fisher Scientific). Three biological replicates were performed for RNA extraction. Quartile analysis was done to exclude outliers and significance was determined by one-way ANOVA tests.

[3] = tested on: SPOP; test: Immunoblot of SPOP levels; conditions: D4476 treatment
Description: (§1) Cells were lysed in EBC buffer (50 mM Tris pH 7.5, 120 mM NaCl, 0.5% NP-40) or Triton X-100 buffer (50 mM Tris pH 7.5, 150 mM NaCl, 1% Triton X-100) supplemented with protease inhibitors (Complete Mini, Roche) and phosphatase inhibitors (phosphatase inhibitor cocktail set I and II, Calbiochem). The protein concentrations of whole cell lysates were measured by NanoDrop OneC using the Bio-Rad protein assay reagent as described previously. Equal amounts of whole cell lysates were resolved by SDS-PAGE and immunoblotted with indicated antibodies. For immunoprecipitations analysis, unless specified, 1000 μg lysates were incubated with the indicated antibody (1-2 μg) for 3-4 hr at 4° C. followed by 1 hr incubation with 10 μL Protein A magnetic beads (New England Biolabs). Or 1000 μg lysates containing tagged molecules were incubated with agarose beads coupled antibodies for the specific tag for 3-4 hr at 4° C. For endogenous IPs, incubation of cell lysates with antibodies was extended to overnight. The recovered immuno-complexes were washed five times with NETN buffer (20 mM Tris, pH 8.0, 100 mM NaCl, 1 mM EDTA and 0.5% NP-40) before being resolved by SDS-PAGE and immunoblotted with indicated antibodies.

[4] = tested on: EWS-FLI1 binding to SPOP; test: EWS-FLI1 binding to SPOP in cells; conditions: D4476 treatment
Description: as §1

## CC(C)C[C@@H](C=O)NC(=O)[C@H](CC(C)C)NC(=O)[C@H](CC(C)C)NC(=O)OCc1ccccc1 [MG132] (Cbz-Leu-Leu-Leu-aldehyde)
[1]; 3A-EWS-FLI1 (S464A/S465A/S466A), MG132 treatment
  3A-EWS-FLI1 mutant protein response: resistance to MG132 treatment
[1]; A673 and SK-N-MC cells, 10 μM MG132 for 4 hrs
  EWS-FLI1 protein abundance: significantly increased EWS-FLI1 protein abundance
[1]
  SPOP-mediated decrease of ectopically expressed EWS-FLI1: blocked
[1]; tet-induced OTUD7A depletion, MG132 treatment
  EWS-FLI1 protein levels following OTUD7A depletion: largely preserved EWS-FLI1 protein levels

## NC(=O)c1ccc(-c2nc(-c3ccc4c(c3)OCCO4)c(-c3ccccn3)[nH]2)cc1 [D4476]
[1]; A673^3A KI cells, D4476 for 16 hrs (FIG. 2P)
  EWS-FLI1 protein levels: not observed
[1]; A673 parental cells, D4476 for 16 hrs (FIG. 2O)
  EWS-FLI1 protein levels: Increased EWS-FLI1 protein levels
[1]; EWS502 cells (CUL3 E358Q), D4476 treatment
  EWS-FLI1 protein abundance: neither D4476 treatment, nor SPOP depletion increased EWS-FLI1 protein abundance
[1]; SK-N-MC, EWS894 and MHH-ES-1 cells, D4476 for 16 hrs (FIGS. 2B-2D)
  EWS-FLI1 protein accumulation: resulted in the accumulation of EWS-FLI1 in multiple Ewing sarcoma cells
[1]; endogenous SPOP-depleted A673 cells, D4476 for 16 hrs (FIG. 2H)
  effect on EWS-FLI1 levels in SPOP-depleted cells: attenuated
[2]; D4476 treatment
  EWS-FLI1 mRNA levels: without significantly affecting EWS-FLI1 mRNA levels
[3]
  SPOP levels: unaffected
[4]
  EWS-FLI1 binding to SPOP: reduced EWS-FLI1 binding to SPOP

## NS(=O)(=O)OC[C@@H]1C[C@@H](n2ccc3c(N[C@H]4CCc5ccccc54)ncnc32)C[C@@H]1O [MLN4924]
[1]; A673 cells, 1 μM MLN4924 overnight
  EWS-FLI1 protein stabilization: largely stabilized EWS-FLI1
[1]
  SPOP-mediated decrease of ectopically expressed EWS-FLI1: blocked

## Cc1sc2c(c1C)C(c1ccc(Cl)cc1)=N[C@@H](CC(=O)OC(C)(C)C)c1nnc(C)n1-2 [JQ1]
[1]; MHH-ES-1 or A673 cells, JQ1 treatment
  EWS-FLI1 protein abundance: didn't change EWS-FLI1 protein abundance

## Nc1cccc2c1CN(C1CCC(=O)NC1=O)C2=O (centres unmarked) [lenalidomide]
[1]; MHH-ES-1 cells, lenalidomide for 16 hrs (FIG. 2I)
  EWS-FLI1 protein abundance: increased EWS-FLI1 protein abundance
[2]; lenalidomide treatment
  EWS-FLI1 mRNA levels: without affecting EWS-FLI1 mRNA levels
